For experiment [1], the target named is human GLP-1R (Homo sapiens, UniProt P43220, G168S). The experiment can be described thus: CHO GLP-1R Clone H6 - Assay 1 (HTRF cAMP agonist assay). The class given is cell-based. The conditions noted are these: for EC50: CHO GLP-1R Clone H6, cAMP HTRF, geometric mean; for Emax: CHO GLP-1R Clone H6, arithmetic mean, relative to saturating GLP-1 (1 μM).
Experiment [2] has as its target human GLP-1R (Homo sapiens (Human), UniProt P43220, L260F). The experiment can be described thus: CHO GLP-1R Clone C6 - Assay 2 (HTRF cAMP agonist assay, low receptor density). The conditions noted are these: for EC50: read-out: Assay 2 EC50, CHO GLP-1R Clone C6 (low receptor density), cAMP HTRF, geometric mean; for Emax: read-out: Assay 2 Emax (%), CHO GLP-1R Clone C6 (low receptor density), arithmetic mean, relative to saturating GLP-1 (1 μM). Background: TR-FRET usually uses a lanthanide donor and a delayed reading to cut background.
Procedure: CHO GLP-1R Clone C6—Assay 2
GLP-1R-mediated agonist activity was determined with a cell-based functional assay utilizing an HTRF (Homogeneous Time-Resolved Fluorescence) cAMP detection kit (cAMP HI Range Assay Kit; Cis Bio cat #62AM6PEJ) that measures cAMP levels in the cell. The method is a competitive immunoassay between native cAMP produced by the cells and exogenous cAMP labeled with the dye d2. The tracer binding is visualized by a mAb anti-cAMP labeled with Cryptate. The specific signal (i.e. energy transfer) is inversely proportional to the concentration of cAMP in either a standard or an experimental sample.
The human GLP-1R coding sequence (NCBI Reference Sequence NP_002053.3, including naturally-occurring variant Leu260Phe) was subcloned into pcDNA5-FRT-TO and a clonal CHO cell line stably expressing a low receptor density was isolated using the Flp-In™ T-Rex™ System, as described by the manufacturer (ThermoFisher).
Cells were removed from cryopreservation, re-suspended in 40 mL of Dulbecco's Phosphate Buffered Saline (DPBS—Lonza Cat #17-512Q) and centrifuged at 800×g for 5 minutes at 22° C. The DPBS was aspirated, and the cell pellet was re-suspended in 10 mL of complete growth medium (DMEM:F12 1:1 Mixture with HEPES, L-Gln, 500 mL (DMEM/F12 Lonza Cat #12-719F), 10% heat inactivated fetal bovine serum (Gibco Cat #16140-071), 5 mL of 100× Pen-Strep (Gibco Cat #15140-122), 5 mL of 100×L-Glutamine (Gibco Cat #25030-081), 700 μg/mL Hygromycin (Invitrogen Cat #10687010) and 15 μg/mL Blasticidin (Gibco Cat # R21001). A 1 mL sample of the cell suspension in growth media was counted on a Becton Dickinson ViCell to determine cell viability and cell count per mL. The remaining cell suspension was then adjusted with growth media to deliver 1600 viable cells per well using a Matrix Combi Multidrop reagent dispenser, and the cells were dispensed into a white 384 well tissue culture treated assay plate (Corning 3570). The assay plate was then incubated for 48 hours at 37° C. in a humidified environment (95% O2, 5% CO2)
Varying concentrations of each compound to be tested (in DMSO) were diluted in assay buffer [HBSS with Calcium/Magnesium (Lonza/BioWhittaker cat #10-527F)/0.1% BSA (Sigma Aldrich cat # A7409-1L)/20 mM HEPES (Lonza/BioWhittaker cat #17-737E)] containing 100 μM 3-isobutyl-1-methylxanthin (IBMX; Sigma cat #15879). The final DMSO concentration in the compound/assay buffer mixture is 1%.
After 48 hours, the growth media was removed from the assay plate wells, and the cells were treated with 20 μL of the serially diluted compound in assay buffer for 30 minutes at 37° C. in a humidified environment (95% O2, 5% CO2). Following the 30 minute incubation, 10 μL of labeled d2 cAMP and 10 μL of anti-cAMP antibody (both diluted 1:20 in cell lysis buffer; as described in the manufacturer's assay protocol) were added to each well of the assay plate. The plates were then incubated at room temperature and after 60 minutes, changes in the HTRF signal were read with an Envision 2104 multi-label plate reader using excitation of 330 nm and emissions of 615 and 665 nm. Raw data were converted to nM cAMP by interpolation from a cAMP standard curve (as described in the manufacturer's assay protocol) and the percent effect was determined relative to a saturating concentration of the full agonist GLP-1 (1 μM) included on each plate. EC50 determinations were made from agonist dose response curves analyzed with a curve fitting program using a 4-parameter logistic dose response equation.

Structures are written as SMILES.

Sequence of human GLP-1R (Homo sapiens, UniProt P43220, G168S) (P43220 24-463 G168S limits assumed): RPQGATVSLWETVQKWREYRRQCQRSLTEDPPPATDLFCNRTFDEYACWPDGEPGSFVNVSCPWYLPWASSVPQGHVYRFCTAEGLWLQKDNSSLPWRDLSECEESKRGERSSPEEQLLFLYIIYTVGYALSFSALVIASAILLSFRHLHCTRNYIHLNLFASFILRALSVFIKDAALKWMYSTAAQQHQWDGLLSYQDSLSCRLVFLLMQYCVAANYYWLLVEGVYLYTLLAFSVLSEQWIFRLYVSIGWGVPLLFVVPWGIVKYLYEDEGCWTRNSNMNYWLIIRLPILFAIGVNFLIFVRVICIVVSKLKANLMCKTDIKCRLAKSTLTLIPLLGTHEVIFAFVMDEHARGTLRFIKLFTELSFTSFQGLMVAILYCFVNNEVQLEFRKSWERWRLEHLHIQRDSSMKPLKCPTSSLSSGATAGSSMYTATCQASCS
Sequence of human GLP-1R (Homo sapiens (Human), UniProt P43220, L260F) (P43220 24-463 L260F): as the sequence (P43220 24-463 G168S limits assumed) above, with S145G, L237F counted along it

In the case of `CC1(c2ccc(Cl)cc2F)Oc2cccc(C3CCN(Cc4nc5ccc(C(=O)O)cc5n4C4CCOC4)CC3)c2O1` (stereo not drawn) [Example 61, 2-({4-[2-(4-chloro-2-fluorophenyl)-2-methyl-1,3-benzodioxol-4-yl]piperidin-1-yl}methyl)-1-(tetrahydrofuran-3-yl)-1H-benzimidazole-6-carboxylic acid], at human GLP-1R [1], the response was half-maximal at 10 nM (EC50) and the Emax was determined as 79%. In addition, at human GLP-1R [2], the EC50 was found to be 240 nM and the Emax stood at 85%.
In the case of `Cc1nccn1CCn1c(CN2CCC(c3cccc4c3OC(C)(c3ccc(Cl)cc3F)O4)CC2)nc2ccc(C(=O)O)cc21` (stereo not drawn) [Example 62, 2-({4-[2-(4-chloro-2-fluorophenyl)-2-methyl-1,3-benzodioxol-4-yl]piperidin-1-yl}methyl)-1-[2-(2-methyl-1H-imidazol-1-yl)ethyl]-1H-benzimidazole-6-carboxylic acid], at human GLP-1R [1], the EC50 came to 2.2 nM and the Emax worked out at 94%. For the same compound, on human GLP-1R [2], the EC50 is 82 nM and the Emax worked out at 95%.
The corresponding values for `Cn1cc(Cn2c(CN3CCC(c4cccc5c4OC(C)(c4ccc(Cl)cc4F)O5)CC3)nc3ccc(C(=O)O)cc32)nn1` (stereo not drawn) [Example 63, 2-({4-[2-(4-chloro-2-fluorophenyl)-2-methyl-1,3-benzodioxol-4-yl]piperidin-1-yl}methyl)-1-[(1-methyl-1H-1,2,3-triazol-4-yl)methyl]-1H-benzimidazole-6-carboxylic acid] are 5.2 nM, 91%, 66 nM and 96%.
At human GLP-1R [1], `CC1(c2ccc(Cl)cc2F)Oc2cccc(C3CCN(Cc4nc5ccc(C(=O)O)cc5n4C[C@H]4CCCO4)CC3)c2O1` (stereo partly drawn) [Example 64, 2-({4-[2-(4-chloro-2-fluorophenyl)-2-methyl-1,3-benzodioxol-4-yl]piperidin-1-yl}methyl)-1-[(2R)-tetrahydrofuran-2-ylmethyl]-1H-benzimidazole-6-carboxylic acid] gave an EC50 of 9.2 nM and an Emax of 94%. On human GLP-1R [2], the EC50 was determined as 91 nM and the Emax was found to be 80%.
The corresponding values for `CC1(c2ccc(Cl)cc2F)Oc2cccc(C3CCN(Cc4nc5ccc(C(=O)O)cc5n4Cc4cccnc4)CC3)c2O1` (stereo not drawn) [Example 65, 2-({4-[2-(4-chloro-2-fluorophenyl)-2-methyl-1,3-benzodioxol-4-yl]piperidin-1-yl}methyl)-1-(pyridin-3-ylmethyl)-1H-benzimidazole-6-carboxylic acid] are 1.2 nM, 99%, 11 nM and 99%.
The corresponding values for `CN(C)C(=O)Cn1c(CN2CCC(c3cccc4c3OC(C)(c3ccc(Cl)cc3F)O4)CC2)nc2ccc(C(=O)O)cc21` (stereo not drawn) [Example 66, 2-({4-[2-(4-chloro-2-fluorophenyl)-2-methyl-1,3-benzodioxol-4-yl]piperidin-1-yl}methyl)-1-[2-(dimethylamino)-2-oxoethyl]-1H-benzimidazole-6-carboxylic acid] are 51 nM, 82%, 850 nM and 74%.
With `COCc1cc(Cn2c(CN3CCC(c4cccc5c4OC(C)(c4ccc(Cl)cc4F)O5)CC3)nc3ccc(C(=O)O)cc32)[nH]n1` (stereo not drawn) [Example 68, 2-({4-[2-(4-chloro-2-fluorophenyl)-2-methyl-1,3-benzodioxol-4-yl]piperidin-1-yl}methyl)-1-{[3-(methoxymethyl)-1H-pyrazol-5-yl]methyl}-1H-benzimidazole-6-carboxylic acid], the figures for the EC50 on human GLP-1R [1] and at human GLP-1R [2] were 73 nM and 1200 nM, respectively. In addition, the maximum response (Emax) was determined as 89% at human GLP-1R [1] and 94% at human GLP-1R [2].
The corresponding values for `CC1(c2ccc(Cl)cc2F)Oc2cccc(C3CCN(Cc4nc5ccc(C(=O)O)cc5n4Cc4cnco4)CC3)c2O1` (stereo not drawn) [Example 69, 2-({4-[2-(4-chloro-2-fluorophenyl)-2-methyl-1,3-benzodioxol-4-yl]piperidin-1-yl}methyl)-1-(1,3-oxazol-5-ylmethyl)-1H-benzimidazole-6-carboxylic acid] are 10 nM, 8.3 nM, 100% and 98%.
The corresponding values for `COCCn1cnnc1Cn1c(CN2CCC(c3cccc4c3OC(C)(c3ccc(Cl)cc3F)O4)CC2)nc2ccc(C(=O)O)cc21` (stereo not drawn) [Example 70, 2-({4-[2-(4-chloro-2-fluorophenyl)-2-methyl-1,3-benzodioxol-4-yl]piperidin-1-yl}methyl)-1-{[4-(2-methoxyethyl)-4H-1,2,4-triazol-3-yl]methyl}-1H-benzimidazole-6-carboxylic acid] are 2.8 nM, 97 nM, 100% and 100%.
The corresponding values for `CN(CCn1c(CN2CCC(c3cccc4c3OC(C)(c3ccc(Cl)cc3F)O4)CC2)nc2ccc(C(=O)O)cc21)S(C)(=O)=O` (stereo not drawn) [Example 71, 2-({4-[2-(4-chloro-2-fluorophenyl)-2-methyl-1,3-benzodioxol-4-yl]piperidin-1-yl}methyl)-1-{2-[methyl(methylsulfonyl)amino]ethyl}-1H-benzimidazole-6-carboxylic acid] are 6.8 nM, 74 nM, 80% and 80%.
At human GLP-1R [1], `CC1(c2ccc(Cl)cc2F)Oc2cccc(C3CCN(Cc4nc5ccc(C(=O)O)cc5n4CC4(O)CCC4)CC3)c2O1` (stereo not drawn) [Example 72, 2-({4-[2-(4-chloro-2-fluorophenyl)-2-methyl-1,3-benzodioxol-4-yl]piperidin-1-yl}methyl)-1-[(1-hydroxycyclobutyl)methyl]-1H-benzimidazole-6-carboxylic acid] displayed a concentration giving a half-maximal response (EC50) of 14 nM and an Emax of 76%. For the same compound, on human GLP-1R [2], the concentration giving a half-maximal response (EC50) was 310 nM and the maximum response (Emax) turned out to be 80%.
The corresponding values for `CC1(c2ccc(Cl)cc2F)Oc2cccc(C3CCN(Cc4nc5ccc(C(=O)O)cc5n4Cc4cn[nH]c4)CC3)c2O1` (stereo not drawn) [Example 73, 2-({4-[2-(4-chloro-2-fluorophenyl)-2-methyl-1,3-benzodioxol-4-yl]piperidin-1-yl}methyl)-1-(1H-pyrazol-4-ylmethyl)-1H-benzimidazole-6-carboxylic acid] are 1.7 nM, 98%, 10 nM and 100%.
The corresponding values for `CC1(c2ccc(Cl)cc2F)Oc2cccc(C3CCN(Cc4nc5ccc(C(=O)O)cc5n4CCO)CC3)c2O1` (stereo not drawn) [Example 75, 2-({4-[2-(4-chloro-2-fluorophenyl)-2-methyl-1,3-benzodioxol-4-yl]piperidin-1-yl}methyl)-1-(2-hydroxyethyl)-1H-benzimidazole-6-carboxylic acid] are 65 nM, 82%, 1000 nM and 71%.
As for `CCn1nncc1Cn1c(CN2CCC(c3cccc4c3OC(C)(c3ccc(Cl)cc3F)O4)CC2)nc2ccc(C(=O)O)cc21` (stereo not drawn) [Example 76, 2-({4-[2-(4-chloro-2-fluorophenyl)-2-methyl-1,3-benzodioxol-4-yl]piperidin-1-yl}methyl)-1-[(1-ethyl-1H-1,2,3-triazol-5-yl)methyl]-1H-benzimidazole-6-carboxylic acid], the EC50 is 0.77 nM at human GLP-1R [1] and 7.6 nM on human GLP-1R [2]. In addition, the Emax at human GLP-1R [1] was 93%; at human GLP-1R [2] it was 100%.
The corresponding values for `Cn1cnc(Cn2c(CN3CCC(c4cccc5c4OC(C)(c4ccc(Cl)cc4F)O5)CC3)nc3ccc(C(=O)O)cc32)c1` (stereo not drawn) [Example 77, 2-({4-[2-(4-chloro-2-fluorophenyl)-2-methyl-1,3-benzodioxol-4-yl]piperidin-1-yl}methyl)-1-[(1-methyl-1H-imidazol-4-yl)methyl]-1H-benzimidazole-6-carboxylic acid] are 53 nM, 1700 nM, 89% and 92%.
On human GLP-1R [1], `Cn1cnnc1Cn1c(CN2CCC(c3cccc4c3OC(C)(c3ccc(Cl)cc3F)O4)CC2)nc2ccc(C(=O)O)cc21` (stereo not drawn) [Example 78, 2-({4-[2-(4-chloro-2-fluorophenyl)-2-methyl-1,3-benzodioxol-4-yl]piperidin-1-yl}methyl)-1-[(4-methyl-4H-1,2,4-triazol-3-yl)methyl]-1H-benzimidazole-6-carboxylic acid] yielded an EC50 of 4.5 nM and an Emax of 89%. On human GLP-1R [2], the EC50 is 78 nM and the Emax stood at 100%.
The corresponding values for `CC1(c2ccc(Cl)cc2F)Oc2cccc(C3CCN(Cc4nc5ccc(C(=O)O)cc5n4C[C@@H]4CCCO4)CC3)c2O1` (stereo partly drawn) [Example 79, 2-({4-[2-(4-chloro-2-fluorophenyl)-2-methyl-1,3-benzodioxol-4-yl]piperidin-1-yl}methyl)-1-[(2S)-tetrahydrofuran-2-ylmethyl]-1H-benzimidazole-6-carboxylic acid] are 1.4 nM, 85%, 21 nM and 85%.
The corresponding values for `CC1(c2ccc(Cl)cc2F)Oc2cccc(C3CCN(Cc4nc5ccc(C(=O)O)cc5n4Cc4ncco4)CC3)c2O1` (stereo not drawn) [Example 80, 2-({4-[2-(4-chloro-2-fluorophenyl)-2-methyl-1,3-benzodioxol-4-yl]piperidin-1-yl}methyl)-1-(1,3-oxazol-2-ylmethyl)-1H-benzimidazole-6-carboxylic acid] are 1.1 nM, 87%, 6.9 nM and 96%.

For orientation: EC50 means the midpoint of the concentration-response curve. In general, Emax refers to the maximal effect, on the per cent scale that the assay sets.

The values above are taken from patent publication US10676465B2, “GLP-1 receptor agonists and uses thereof” (Pfizer Inc., priority 2018, dated 2020).
